For the experiment, the target named is T1, Sodium/glucose cotransporter 2 (Homo sapiens, UniProt P31639).
T1 sequence (P31639 whole entry): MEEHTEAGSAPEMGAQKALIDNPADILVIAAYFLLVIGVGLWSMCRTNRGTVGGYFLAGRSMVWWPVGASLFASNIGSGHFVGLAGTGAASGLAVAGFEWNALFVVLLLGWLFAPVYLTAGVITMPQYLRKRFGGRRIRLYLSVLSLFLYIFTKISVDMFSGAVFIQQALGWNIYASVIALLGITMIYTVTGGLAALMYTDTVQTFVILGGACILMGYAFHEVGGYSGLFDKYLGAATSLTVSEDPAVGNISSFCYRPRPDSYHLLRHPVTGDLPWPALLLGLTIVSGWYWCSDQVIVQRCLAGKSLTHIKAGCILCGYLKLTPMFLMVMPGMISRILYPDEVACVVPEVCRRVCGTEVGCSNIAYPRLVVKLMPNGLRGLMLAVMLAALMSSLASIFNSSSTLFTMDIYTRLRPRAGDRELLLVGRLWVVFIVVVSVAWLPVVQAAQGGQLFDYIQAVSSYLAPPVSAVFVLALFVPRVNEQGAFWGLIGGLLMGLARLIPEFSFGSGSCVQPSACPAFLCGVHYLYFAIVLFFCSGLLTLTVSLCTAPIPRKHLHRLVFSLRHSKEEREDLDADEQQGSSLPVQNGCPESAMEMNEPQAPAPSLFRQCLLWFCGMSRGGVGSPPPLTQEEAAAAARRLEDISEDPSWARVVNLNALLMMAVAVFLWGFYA
The experiment can be described thus: Biological Assays: The SGLT2 functional assay was designed to detect the inhibition of methyl-alpha-D glucopyranoside (AMG a non-metabolizable form of glucose) uptake via the SGLT2 transporter. The SGLT2 transporter recovers glucose from the proximal tubules of the kidney; its inhibition results in sugar wasted in the urine. The positive control compound, Phlorizin, is a known inhibitor of glucose uptake for SGLT2 and was used for comparing the high percent effect of SGLT2 inhibition of the test compounds.

Several values for one entry are separate records, joined by “and”; a condition that tells them apart may be missing. Identical values can stand only once.

As for `CCOc1ccc(Cc2cc([C@]34OC[C@](COC(C)=O)(O3)[C@@H](O)[C@H](O)[C@H]4O)ccc2Cl)cc1`, the IC50 was 5 nM and 6.7 nM.

Broadly, the IC50 is the point on the concentration scale where inhibition reaches its midpoint. A high value points to a need for much substance.
